Like-named read-outs stand apart in the source and are kept apart here.
How the values were obtained:
BRD4 BD2 = BRD4 BD2 (Homo sapiens (Human), UniProt O60885); assay: NanoBRET bromodomain assay, NanoLuc-BRD4-BD2 fusion in HEK293 cells; conditions: for Fold selectivity: IC50 for BRD4 BD1 divided by IC50 for BRD4 BD2, qualitative if an IC50 is at the upper limit; for IC50: BRD4 BD2 (IC50), NanoBRET, HEK293 cells, top concentration 10 μM;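 as to all read-outs here: tracer displacement BRET read in transfected cells after 2 h compound exposure at 37 °C, signal in milliBRET units corrected against no-tracer background wells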
BRD4 BD1 = BRD4 BD1 (Homo sapiens (Human), UniProt O60885); assay: NanoBRET bromodomain assay, NanoLuc-BRD4-BD1 fusion in HEK293 cells; format: cell-based; conditions: top concentration 10 μM
[1] = Intrinsic clearance in liver microsomes, mouse; format: in vitro ADME; conditions: pH 7.4, Method 2, read-out: Half-Life (T1/2) (min), Mouse
Procedure: From stock solution of compound on 10 mM DMSO, a working solution of 0.1 mM is prepared by diluting the compound in DMSO. 6.25 μL of a 20 mg/mL solution of microsomes in PBS pH 7.4 buffer is added to 216.25 μL PBS pH 7.4 buffer (final microsome concentration—0.5 mg/mL). 25 μL of 10 mM solution of NADPH in PBS pH 7.4 buffer is added to the incubations (final NADPH concentration—1 mM). The mixture is pre-warmed to 37° C. for 10 minutes. 2.5 μL of test compound working solution is added (final compound concentration—1 μM with 1% DMSO). Aliquots of 30 μL are taken from the reaction solution at 0.5, 5, 15, 30 and 60 minutes. The reaction was stopped by the addition of 5 volumes of cold acetonitrile with IS (100 nM alprazolam, 200 nM caffeine and 100 nM tolbutamide). Samples were centrifuged at 3, 220 g for 40 minutes. Aliquots of 100 μL of the supernatant are mixed with 100 μL of ultra-pure H2O and used for LC-MS/MS analysis. The percent compound remaining at each time point is calculated with respect to that of the 0.5 min sample. The data are analysed to calculate half-life. Control experiments are run without NADPH and blank samples are prepared using DMSO without the test compound.
A 50 mM stock solution (in DMSO) is prepared for the compound. From the stock solution, a working solution of 0.5 mM is prepared by diluting the compound in DMSO. This concentration of working solution is prepared considering a final concentration of 1 uM with 0.1% DMSO. The compound (1 μL of working solution) is spiked in PBS with pH 7.4 ([…]) at a concentration of 1 μM. Subsequently, 110 μL of 10 mM NADPH is added (as a co-factor). The sample is incubated at 37° C. for 15 min. Following this, pre-warmed liver microsomes (27.5 μL; final protein conc. 0.5 mg/mL) are added. The samples are then incubated at 37° C. Aliquots of samples are withdrawn at 0, 5, 15, 30, 45 and 60 min. The reaction is stopped by using chilled acetonitrile containing internal standard. The samples are centrifuged, and the supernatants analysed by LC-MS/MS. The percent compound remaining at each time point is calculated with respect to that of the 0 min sample. The data are then analysed to calculate half-life and intrinsic clearance (CLint). Control experiments are run without NADPH and blank samples are prepared using DMSO without the test compound.

CXCL10 = CXCL10 levels by ELISA in IFN-γ stimulated human peripheral blood mononuclear cells; format: cell-based; conditions: human PBMC
Procedure: The impact of Examples 23, 80, and 101 on IL-17A, IL-22, and CXCL10 levels was analyzed in cryopreserved human peripheral blood mononuclear cells (PBMC) by ELISA. […] For IL-17A and IL-22 assays, Examples 23, 80, and 101 were serially diluted from 10 mM in DMSO and further diluted in assay media to 100× the required final concentration, of which, 2 μL was added per well to a round-bottom 96-well tissue culture plate where the final DMSO concentration per well was 0.1%. CD2, CD3, and CD28 antibody-coated beads from the T-cell activation/expansion kit (Miltenyi Biotec) were added to the PBMC at a bead-to-cell ratio of 1:2.
(§1) The mixture of PBMCs and beads were seeded into the wells of the round-bottom 96-well plate at a concentration of 2×10^5 cells/well in a total volume of 200 μL. The cells were cultured for 72 hours at 37° C. and 5% CO2 and then supernatants were collected and IL-17A and IL-22 levels were measured by ELISA. For the CXCL10 assay, Examples 23, 80, and 101 were serially diluted from 10 mM in DMSO and further diluted in assay media to 100× the required final concentration, of which 2 μL was added per well to a 96-well tissue culture plate. The final compound concentration ranged from 30,000 nM to 0.005 nM and the final DMSO concentration per well was 0.3%. PBMCs were seeded at approximately 2×10^5 cells/well in the wells of the 96-well tissue culture plate in a total volume of 190 μL. The plate was incubated for 1 hour at 37° C. and 5% CO2. The cells were then stimulated with IFN-γ (15 ng/mL final concentration) in a volume of 10 μL. The cells were then cultured for 24 hours at 37° C. and 5% CO2. The supernatant was collected and CXCL10 levels were measured by ELISA.

IL-22 = IL-22 levels by ELISA in stimulated human peripheral blood mononuclear cells; format: cell-based; conditions: for IC50: Homo sapiens, PBMC; for IC50 for IL-22 relative to GSK620 / Biomarker selectivity (IL-22 vs. CXCL10): human PBMC; for IC50 for IL-22 relative to GSK620: 72 hours; for Biomarker selectivity (IL-22 vs. CXCL10): from mean IC50
Procedure: (§2) CD2, CD3, and CD28 antibody-coated beads from the T-cell activation/expansion kit (Miltenyi Biotec) were added to the PBMC at a bead-to-cell ratio of 1:2.
as §1, with “For the CXCL10 assay, Examples 23, 80, and 101 were serially diluted from 10 mM in DMSO and further diluted in assay media to 100× the required final concentration, of which 2 μL was added per well to a 96-well tissue culture plate.” left out, “The cells were then stimulated with IFN-γ (15 ng/mL final concentration) in a volume of 10 μL.” left out

IL-17A = IL-17A levels by ELISA in stimulated human peripheral blood mononuclear cells; format: cell-based; conditions: for IC50: Homo sapiens, PBMC; for IC50 for IL-17A relative to GSK620 / Biomarker selectivity (IL-17 vs. CXCL10): human PBMC; for IC50 for IL-17A relative to GSK620: 72 hours; for Biomarker selectivity (IL-17 vs. CXCL10): from mean IC50
Procedure: as §2
as §1, with “For the CXCL10 assay, Examples 23, 80, and 101 were serially diluted from 10 mM in DMSO and further diluted in assay media to 100× the required final concentration, of which 2 μL was added per well to a 96-well tissue culture plate.” left out, “The cells were then stimulated with IFN-γ (15 ng/mL final concentration) in a volume of 10 μL.” left out

[2] = Test Subject 2, read-out: CXCL10 IC50
[3] = Test Subject 3, read-out: CXCL10 IC50
[4] = mean of test subjects, read-out: CXCL10 IC50 Mean
[5] = Test Subject 2, read-out: IL-22 IC50
[6] = Test Subject 3, read-out: IL-22 IC50
[7] = mean of test subjects, read-out: IL-22 IC50 Mean
[8] = Test Subject 1, read-out: IL-17A IC50
[9] = Test Subject 3, read-out: IL-17A IC50
[10] = mean of test subjects, read-out: IL-17A IC50 Mean

SMILES | Fold selectivity (BRD4 BD2) | IC50 (BRD4 BD1) | half-life at 1 μM [1] | IC50 (BRD4 BD2) | further results
CNC(=O)c1[nH]c(C(=O)N[C@@H]2CC[C@@H](O)C2)cc1O[C@@H](C)c1ccccc1 (racemic) [Example 116, N^5-(trans-3-hydroxycyclopentyl)-N^2-methyl-3-((S)-1-phenylethoxy)-1H-pyrrole-2,5-dicarboxamide] | XX (Fold >50 and ≤200) | ≥ 10000 nM | > 60 min |  | 
CNC(=O)c1[nH]c(C(=O)N[C@H]2C[C@H](O)C2)cc1O[C@@H](C)c1ccccc1 [Example 108, N^5-(trans-3-hydroxycyclobutyl)-N^2-methyl-3-((S)-1-phenylethoxy)-1H-pyrrole-2,5-dicarboxamide] | XX (Fold >50 and ≤200) | ≥ 10000 nM | > 60 min | 50 to 200 nM | 
CNC(=O)c1[nH]c(C(=O)NC2CC(F)(F)C2)cc1O[C@@H](C)c1ccccc1 [Example 109, (S)—N^5-(3,3-difluorocyclobutyl)-N^2-methyl-3-(1-phenylethoxy)-1H-pyrrole-2,5-dicarboxamide] | X (Fold >2 and ≤50) | ≥ 10000 nM | > 60 min | 200 to 1000 nM | 
CNC(=O)c1[nH]c(C(=O)N[C@H]2CCC(F)(F)C2)cc1O[C@@H](C)c1ccccc1 [Example 110, N^5-((S)-3,3-difluorocyclopentyl)-N^2-methyl-3-((S)-1-phenylethoxy)-1H-pyrrole-2,5-dicarboxamide] | X (Fold >2 and ≤50) | ≥ 10000 nM | > 60 min | 200 to 1000 nM | 
CNC(=O)c1[nH]c(C(=O)N[C@@H]2CCC(F)(F)C2)cc1O[C@@H](C)c1ccccc1 [Example 111, N^5-((R)-3,3-difluorocyclopentyl)-N^2-methyl-3-((S)-1-phenylethoxy)-1H-pyrrole-2,5-dicarboxamide] | X (Fold >2 and ≤50) | ≥ 10000 nM | > 60 min | 200 to 1000 nM | 
CNC(=O)c1[nH]c(C(=O)NCCC(F)(F)F)cc1O[C@@H](C)c1ccccc1 [Example 112, (S)—N^2-methyl-3-(1-phenylethoxy)-N^5-(3,3,3-trifluoropropyl)-1H-pyrrole-2,5-dicarboxamide] | X (Fold >2 and ≤50) | ≥ 10000 nM | > 60 min | 200 to 1000 nM | 

Continued, in another order:

Fold selectivity (BRD4 BD2) | IC50 (BRD4 BD1) | half-life at 1 μM [1] | IC50 (BRD4 BD2) | SMILES | further results
XXX (Fold >200) | ≥ 10000 nM |  | < 50 nM | CNC(=O)c1[nH]c(-c2ncc(C)[nH]2)cc1O[C@@H](C)c1ccccc1 [Example 23, (S)-N-methyl-5-(5-methyl-1H-imidazol-2-yl)-3-(1-phenylethoxy)-1H-pyrrole-2-carboxamide] | selectivity to induction of CXCL10 relative to IL-17A and IL-22 (CXCL10): showed selectivity to induction of CXCL10 relative to IL-17A and IL-22; IC50 (CXCL10; [2]): > 30000 nM; IC50 (CXCL10; [3]): > 30000 nM; IC50 (CXCL10; [4]): > 30000 nM; IC50 (IL-22; Test Subject 1, read-out: IL-22 IC50): 8.5 nM; IC50 (IL-22; [5]): 1.2 nM; IC50 (IL-22; [6]): 4.3 nM; IC50 (IL-22; [7]): 4.7 nM; IC50 for IL-22 relative to GSK620 (IL-22): decreased mean IC50; Biomarker selectivity (IL-22 vs. CXCL10) (IL-22): >6429 Fold; BRD4 BD2 % Activity Remaining @ 10 uM (BRD4 BD2; 10 uM, (2) = second batch): 22%; IC50 (IL-17A; [8]): 104 nM; IC50 (IL-17A; Test Subject 2, read-out: IL-17A IC50): 9.6 nM; IC50 (IL-17A; [9]): 53.4 nM; IC50 (IL-17A; [10]): 24.5 nM; IC50 for IL-17A relative to GSK620 (IL-17A): decreased mean IC50; Biomarker selectivity (IL-17 vs. CXCL10) (IL-17A): >1226 Fold
XXX (Fold >200) | ≥ 10000 nM |  | < 50 nM | CNC(=O)c1[nH]c(-c2cnn(C(C)C)c2)cc1O[C@@H](C)c1ccccc1 [Example 80, (S)-5-(1-isopropyl-1H-pyrazol-4-yl)-N-methyl-3-(1-phenylethoxy)-1H-pyrrole-2-carboxamide] | selectivity to induction of CXCL10 relative to IL-17A and IL-22 (CXCL10): showed selectivity to induction of CXCL10 relative to IL-17A and IL-22; IC50 (CXCL10; Test Subject 1, read-out: CXCL10 IC50): > 30000 nM; IC50 (CXCL10; [2]): > 30000 nM; IC50 (CXCL10; [3]): > 30000 nM; IC50 (CXCL10; [4]): > 30000 nM; IC50 (IL-22; [5]): 9.3 nM; IC50 (IL-22; [6]): 30.7 nM; IC50 (IL-22; [7]): 20 nM; IC50 for IL-22 relative to GSK620 (IL-22): decreased mean IC50; Biomarker selectivity (IL-22 vs. CXCL10) (IL-22): >1500 Fold; IC50 (IL-17A; [8]): 25.1 nM; IC50 (IL-17A; [9]): 187 nM; IC50 (IL-17A; [10]): 106 nM; IC50 for IL-17A relative to GSK620 (IL-17A): increased mean IC50; Biomarker selectivity (IL-17 vs. CXCL10) (IL-17A): >283 Fold
X (Fold >2 and ≤50) | ≥ 10000 nM | > 60 min | 200 to 1000 nM | CNC(=O)c1[nH]c(C(=O)NC(C)C)cc1O[C@@H](C)c1ccccc1 [Example 105, (S)—N^5-isopropyl-N^2-methyl-3-(1-phenylethoxy)-1H-pyrrole-2,5-dicarboxamide] | 
XX (Fold >50 and ≤200) | ≥ 10000 nM | > 60 min | 50 to 200 nM | CNC(=O)c1[nH]c(C(=O)NC2CC2)cc1O[C@@H](C)c1ccccc1 [Example 106, (S)—N^5-cyclopropyl-N^2-methyl-3-(1-phenylethoxy)-1H-pyrrole-2,5-dicarboxamide] | 
XX (Fold >50 and ≤200) | ≥ 10000 nM | > 60 min | 50 to 200 nM | CNC(=O)c1[nH]c(C(=O)NC2COC2)cc1O[C@@H](C)c1ccccc1 [Example 107, (S)—N^2-methyl-N^5-(oxetan-3-yl)-3-(1-phenylethoxy)-1H-pyrrole-2,5-dicarboxamide] | 

— patent US20250263370A1 (Tay Therapeutics Limited, priority 2022, published 2025)
